This is an account of results in ChEMBL document CHEMBL5614417, “Discovery of AMPs from random peptides via deep learning-based model and biological activity validation” (Eur J Med Chem, 2024).

In brackets after ≈: the same amount, converted by molar mass. Activity calls are given as the source filed them. The calls are words filed in the database; no cut-off is given here. Where a SMILES comes first, the peptide text is derived from it.

Data set [1] relates to Cell membrane. The experiment in a line: Induction of cell membrane damage in Staphylococcus aureus at 4 times MIC incubated for 30 mins by PI staining based confocal laser scanning microscopic analysis. The data set is classed as cell membranes.
For data set [2], the system named is Staphylococcus aureus. The experiment in a line: Inhibition of biofilm formation in Staphylococcus aureus at 16 times MIC incubated for 24 hrs by crystal violet staining based assay. In kind it is functional.
A short description of data set [3]: Toxicity in BALB/c mouse assessed as spleen damage at 400 mg/kg, ip measured after 48 hrs by H and E staining based assay. The data set is classed as organism-based. The following applies: in vivo.
The test system of data set [4] is Staphylococcus aureus. The experiment in a line: Antibacterial activity against methicillin resistant Staphylococcus aureus 3 incubated for 18 hrs by visual inspection method. In kind it is functional.
In data set [5] the test system is Cell membrane. The experiment in a line: Induction of inner membrane permeability in Escherichia coli ML-35 measured every 5 mins for 90 mins by ONPG dye based assay. The data set is classed as cell membranes.
Data set [6] has as its system Staphylococcus aureus. Put plainly: Antibacterial activity against methicillin resistant Staphylococcus aureus 1 incubated for 18 hrs by visual inspection method. In kind it is functional.
Data set [7] in a line: Toxicity in BALB/c mouse assessed as lung damage at 400 mg/kg, ip measured after 48 hrs by H and E staining based assay. In kind it is organism-based. Particulars: in vivo.
Data set [8] relates to Staphylococcus aureus. The experiment in a line: Induction of resistance development against Staphylococcus aureus assessed as fold increase in MIC after 21 passages. In kind it is functional.
In the next data set the test system is Klebsiella pneumoniae. The experiment in a line: Antibacterial activity against Klebsiella pneumoniae ATCC 700603 incubated for 18 hrs by visual inspection method. In kind it is functional.
Data set [9] deals with Cell membrane. The experiment in a line: Disruption of outer membrane integrity in Escherichia coli assessed as increase in fluorescence intensity by measuring NPN uptake at 1 to 4 times MIC by fluorescence based analysis. The data set is classed as cell membranes. Particulars: TDE = time-dependent effect.
Data set [10] concerns Cell membrane. The experiment in a line: Induction of cell membrane damage in Escherichia coli at 4 times MIC incubated for 30 mins by PI staining based confocal laser scanning microscopic analysis. The data set is classed as cell membranes.
The subject of data set [11] is Acinetobacter baumannii. The experiment in a line: Antibacterial activity against multidrug resistant Acinetobacter baumannii 2 incubated for 18 hrs by visual inspection method. The data set is classed as functional.
Data set [12] is described as follows: Hemolytic activity in rat erythrocytes at 1000 ug/ml incubated for 1 hr. The data set is classed as toxicity, cell-based, Erythrocyte. Particulars: at 1000 µg/mL, read-out: Activity.
Data set [13] deals with Acinetobacter baumannii. Put plainly: Antibacterial activity against multidrug resistant Acinetobacter baumannii 1 incubated for 18 hrs by visual inspection method. In kind it is functional.

As for `CC[C@H](C)[C@H](NC(=O)[C@H](Cc1ccccc1)NC(=O)[C@@H](N)Cc1c[nH]c2ccccc12)C(=O)N[C@H](C(=O)N[C@@H](Cc1c[nH]c2ccccc12)C(=O)N[C@@H](Cc1c[nH]cn1)C(=O)N[C@@H](Cc1c[nH]c2ccccc12)C(=O)N[C@@H](CCCNC(=N)N)C(=O)N[C@@H](CCCCN)C(=O)N[C@H](C(=O)N1CCC[C@H]1C(=O)N1CCC[C@H]1C(=O)N[C@@H](CCCCN)C(N)=O)[C@@H](C)CC)[C@@H](C)CC` (H-WFIIWHWRKIPPK-NH2), the result in the data set on Cell membrane [1] and with Cell membrane [10] was Active. Further, the “inhibition (INH)” value in the data set with Staphylococcus aureus [2] is listed as greater than 90%. Besides, the Activity entry in [3] is “Non-Toxic”; in the data set with Cell membrane [5] it was “Dose-Dependent Effect”; in data set [7], “Non-Toxic”; in the data set on Cell membrane [9] it was “Tde”. In addition, the MIC against Staphylococcus aureus [4] was 7.5 µg/mL (≈ 4.15 µM); in the data set with Staphylococcus aureus [6], 7.5 µg/mL (≈ 4.15 µM); against Klebsiella pneumoniae, 30 µg/mL (≈ 16.6 µM); with Acinetobacter baumannii [11], 7.5 µg/mL (≈ 4.15 µM); against Acinetobacter baumannii [13] it was 7.5 µg/mL (≈ 4.15 µM). The fold change (FC) in the data set on Staphylococcus aureus [8] worked out at 2. Besides, the hemolysis at 1 h, 1000 ug/ml in data set [12] turned out to be 10.8%.
